Measurements reported in ChEMBL document CHEMBL1129577, “Identification of a novel oxazolidinone (U-100480) with potent antimycobacterial activity” (1996).
Converted amounts (≈) assume the structure as drawn.

Experiments:
Assay type in all cases: functional
[1] = system: Mycobacterium tuberculosis; assay: Compound was evaluated for in vitro anti-mycobacterial activity against Mycobacterium tuberculosis
[2] = system: Mycobacterium tuberculosis; assay: In vitro anti-mycobacterial activity against multiple sensitive strains of Mycobacterium tuberculosis at 0.125 ug/mL
[3] = system: Mycobacterium tuberculosis; assay: In vitro anti-mycobacterial activity against multiple sensitive strains of Mycobacterium tuberculosis at 0.50 ug/mL
[4] = system: Mycobacterium tuberculosis; assay: In vitro anti-mycobacterial activity against multiple sensitive strains of Mycobacterium tuberculosis at 2 ug/mL
[5] = system: Mycobacterium malmoense; assay: Compound was evaluated for in vitro anti-mycobacterial activity against Mycobacterium malmoense
[6] = system: Mycolicibacterium fortuitum; assay: Compound was evaluated for in vitro anti-mycobacterial activity against Mycobacterium fortuitum
[7] = system: Mycobacterium avium; assay: Compound was evaluated for in vitro anti-mycobacterial activity against Mycobacterium avium complex (MAC) ATCC 49601
[8] = system: Mycobacterium simiae; assay: Compound was evaluated for in vitro anti-mycobacterial activity against Mycobacterium simiae
[9] = system: Mycobacterium avium; assay: Compound was evaluated for in vitro anti-mycobacterial activity against MAC 101
[10] = system: Mycobacterium xenopi; assay: Compound was evaluated for in vitro anti-mycobacterial activity against Mycobacterium xenopi
[11] = system: Mycobacterium tuberculosis; assay: Compound was evaluated for in vitro anti-mycobacterial activity against Mycobacterium tuberculosis H37Rv
[12] = system: Mycobacterium avium; assay: Compound was evaluated for in vitro anti-mycobacterial activity against Mycobacterium avium complex by 50%
[13] = system: Mycobacterium avium; assay: Compound was evaluated for in vitro anti-mycobacterial activity against Mycobacterium avium complex by 90%
[14] = system: Mycobacterium tuberculosis; assay: In vitro anti-mycobacterial activity against multiple sensitive strains of Mycobacterium tuberculosis at 0.03 ug/mL

SMILES	MIC [1]	No. of strains [2]	No. of strains [3]	MIC [5]	MIC [6]	MIC [7]	MIC [8]	MIC [9]	MIC [10]	further results
CC(=O)NC[C@H]1CN(c2ccc(N3CC[S+]([O-])CC3)c(F)c2)C(=O)O1	< 0.125 µg/mL	–	–	–	–	–	–	–	–	–
CC(=O)NC[C@H]1CN(c2ccc(N3CCS(=O)(=O)CC3)c(F)c2)C(=O)O1	–	1	4	–	–	–	–	–	–	No. of strains [4]: 1
CC[C@H]1OC(=O)[C@H](C)[C@@H](O[C@H]2C[C@@](C)(OC)[C@@H](O)[C@H](C)O2)[C@H](C)[C@@H](O[C@@H]2O[C@H](C)C[C@H](N(C)C)[C@H]2O)[C@](C)(O)C[C@@H](C)CN(C)[C@H](C)[C@@H](O)[C@]1(C)O [AZITHROMYCIN]	–	–	–	16 µg/mL (≈ 21.4 µM)	> 64 µg/mL	4 µg/mL (≈ 5.34 µM)	4 µg/mL (≈ 5.34 µM)	4 µg/mL (≈ 5.34 µM)	1 µg/mL (≈ 1.34 µM)	–
NNC(=O)c1ccncc1 [ISONIAZID]	0.2 µg/mL (≈ 1.46 µM)	–	–	–	–	–	–	–	–	–
CC(=O)NC[C@H]1CN(c2ccc(N3CCSCC3)c(F)c2)C(=O)O1 [SUTEZOLID]	–	2	2	2 µg/mL (≈ 5.66 µM)	8 µg/mL (≈ 22.6 µM)	4 µg/mL (≈ 11.3 µM)	2 µg/mL (≈ 5.66 µM)	0.5 µg/mL (≈ 1.41 µM)	2 µg/mL (≈ 5.66 µM)	MIC [11]: < 0.125 µg/mL; MIC [12]: 2 µg/mL (≈ 5.66 µM); MIC [13]: 4 µg/mL (≈ 11.3 µM); No. of strains [14]: 1
